This note sets out measurements from a melting point compilation (Tetko et al.; mined from patent text by program, amines drawn as free bases though some values may be those of a salt).

In general, melting point refers to the temperature of the solid-liquid transition. `CN1CCC(Nc2nc3ccccc3n2Cc2ccccc2)CC1`: the melting point fell in the range of 94 to 102 °C.

As for `CCc1nc(C)c(CC(=O)O)c(=O)n1Cc1ccc(-c2ccccc2-c2nnn[nH]2)cc1`, the melting point lay in the range of 325 to 329 °C.

Turning to `Cc1cccc(-c2[nH]c(C(C)C)nc2-c2ccc(F)c(-c3ncc[nH]3)c2)n1`, the melting point fell in the range of 201 to 205 °C.

For the compound `Cc1cc2nc(C(=O)NC(Cc3ccc(OCc4ccccc4)cc3)C(=O)O)cn2cc1-c1ccc(Cl)cc1` (stereo not given), the melting point lay within 248 to 249 °C.

Consider `COc1cc(COc2nn(Cc3ccccc3)cc2C=O)ccc1OCc1nc(-c2ccco2)oc1C`, for which the melting point lay in the range of 139 to 140 °C.

The compound `O=P1(O)Oc2ccccc2-c2cc(F)ccc21` showed a melting point of 240 °C.

`CCCCN1CCCC1CNC(=O)c1cc(Cl)cc2c1SCCN2C` (stereo not given): the melting point fell in the range of 108 to 109 °C.

As for `O=S(=O)(CCNc1ccccc1)NCCCOc1cccc(CN2CCCCC2)c1`, the melting point is 112 to 115 °C.

Consider `COc1ccc(C#N)cc1C(=O)NCCN1CCC(=C(O)c2ccc(F)cc2)CC1`, for which the melting point was in the range of 135 to 137 °C.

`CC(C)(NC(=O)C1=C(C(=O)Nc2cc(OC3CCCC3)c(Cl)cc2F)CCCC1)c1ccc(Br)cc1` gave a melting point of 214 to 216 °C.

`CC(C)[C@]1(c2ccccc2OCC#CCCl)Sc2ccccc2N(C)C1=O` yielded a melting point of 136 °C.

In turn, `c1ccc(COc2cccc(CCCn3ccnn3)c2)cc1` gave a melting point of 74 to 75 °C.

As to `COC(=O)c1ccc(C#N)s1`, the melting point is 76 to 78 °C.

As for `CC(C)CC12CCC3C4CCC(=O)C=C4CCC3C1CCC2OC(=O)CCc1ccccc1` (stereo not given), the melting point was 101 to 106 °C.

On to `Cc1cc(-c2nc3cccnn3c2-c2ccnc(NC(=O)c3ccc(Cl)nc3)c2)ccc1F`, for which the melting point is 225 to 226 °C.

`CCOC(=O)c1cnc2cc(N)ccc2n1` returned a melting point of 181 to 183 °C.

`CC=C(C)C1CCC2C3CCC4=CC(=O)CCC4(C)C3CCC12C` (stereo not given) returned a melting point of 157 to 165 °C.

Take `CCC(O)(c1ccc(OCc2ccccc2)cc1)c1ccc(Cl)cc1Cl` (stereo not given): the melting point is 56 to 57 °C.

For `CC1(C)CC(=O)OC(C(Cl)(Cl)Cl)C1Cl` (stereo not given), the melting point lay in the range of 83 to 84 °C.

For `OC1CSC(Oc2cnc(-c3cncnc3)c(F)c2)C(O)C1O` (stereo not given), the melting point is 192 °C.

The compound `O=C(NCC1(c2ccccc2)CCCCC1)Nc1ccccc1` gave a melting point of 162 to 164 °C.

For the compound `N#Cc1c(N2CCCCC2)cc(-c2ccc3ccccc3c2)c2c1C(=O)c1ccccc1-2`, the melting point is 182 to 184 °C.

`CCOCc1nc2c(c(C)c(C)n3nnnc23)n1CCNC(=O)Nc1ccccc1` yielded a melting point of more than 250 °C.

Compound `Cc1nc2c3c(c(CO)cc2n1C)CCC1(Cc2ccccc2C1)N3` showed a melting point of 272 to 274 °C.

Consider `COc1ccc(CC2CCC3NC(=O)CCC3C2)cc1` (stereo not given), for which the melting point lay within 194 to 196 °C.

In the case of `CCOC(=O)c1cnn2c1nc(N(CC)CC)c1cnc3c(cnn3CC)c12`, the melting point lay in the range of 170 to 172 °C.

`O=C(Nc1ccc(Oc2ccc(N(CC(=O)N3CCN(Cc4ccc5c(c4)OCO5)CC3)C(=O)C(F)(F)F)cc2)nc1)c1ccc(Cl)c(Cl)c1` yielded a melting point of 211 to 213 °C.

In turn, `CN(C)[C@H]1C[C@@H]2CN(C(=O)c3ccc(NC(=O)c4ccccc4-c4ccccc4)cc3)c3ccccc3N2C1` displayed a melting point of 195 to 197 °C.

In the case of `Cc1ccc(CN(C)C(=O)c2cnn(C)c2C(=O)Nc2ccn3nc(-c4ccccc4)nc3c2)cn1`, the melting point fell in the range of 110 to 150 °C.

In turn, `COC(=O)c1ccc2cc(-c3ccc(C(=O)O)c(C45CC6CC(CC(C6)C4)C5)c3)ccc2c1` registered a melting point of 239 to 240 °C.

In turn, `COC(CSc1nc(SCc2ccccc2)n[nH]1)OC` yielded a melting point of 73 to 76 °C.

`O=S(=O)(C1CC1)N1CCC(Nc2nccc(-c3c(-c4ccc(F)c(O)c4)nc4sccn34)n2)CC1` showed a melting point of 224 to 225 °C.

`CC(=Cc1ccc(F)cc1)CNC(=O)c1ccc(F)cc1` showed a melting point of 107 to 109 °C.

For the compound `COc1cc2cc(C3=CCN(C)CC3)oc2cc1OC`, the melting point was in the range of 73 to 75 °C.

As to `CCOC(=O)Nn1cccc1C(=O)c1ccccc1`, the melting point lay within 68 to 70 °C.

With `CCc1nc2c(C)cc(C)nc2n1Cc1ccc2c(c1)CCc1ccccc1N2Cc1nnn[nH]1`, the melting point was in the range of 177 to 179 °C.

Regarding `CCOP(=O)(O)Cc1cccc(C(F)(F)F)c1`, the melting point was in the range of 48 to 51 °C.

`CCCS(=O)(=O)c1ccc2c(c1)C(=O)CC2` registered a melting point of 100 °C.

The compound `Cc1cc(O)ccc1-c1ccc(N)cc1` gave a melting point of 156 to 157 °C.

For the compound `CCOc1cc(-c2cccc(C(=O)NCc3cccc4c3C(=O)N(C3CCC(=O)NC3=O)C4=O)n2)ccc1OC` (stereo not given), the melting point fell in the range of 196 to 198 °C.

For `Oc1cccnc1SCc1ccccc1`, the melting point lay in the range of 103 to 104 °C.

In turn, `CN(C)C(=O)Cn1c(-c2ccc(F)cc2)nc2cccnc21` displayed a melting point of 180 to 183 °C.

Regarding `C(=Cc1ccc(-c2ccccc2)cc1)c1ccccc1`, the melting point stood at 224 °C.

Compound `O=[N+]([O-])c1ccc(Oc2ccc(C(F)(F)F)cc2Cl)cc1NCP(=O)(O)O` returned a melting point of 148 to 150 °C.

`CN1CC(CCn2ccnc2)Oc2ncccc2C1=O` (stereo not given) had a melting point of 150 to 152 °C.

As for `O=C(O)CSC12CC3CC(CC(C3)C1)C2`, the melting point fell in the range of 71 to 73 °C.

`CC(=O)N(CCCC(=O)O)C1CCCc2ccccc21` (stereo not given) displayed a melting point of 141 to 142 °C.

Compound `CCC(=O)c1ccc(OCCCCCCCc2cc(C)no2)cc1` returned a melting point of 61 °C.

As to `COc1ccn2nc(-c3ccccc3)c(-c3ccc(=O)n(C4CCCN(C)C4)n3)c2c1` (stereo not given), the melting point lay in the range of 179 to 180 °C.

In turn, `COc1cc2c(cc1C(F)(F)F)N(C(=O)Nc1ccc(Cl)c(-c3cccnc3)c1)CC2` yielded a melting point of 210 to 213 °C.

The compound `COc1cc2c(c(Cl)c1Cl)SCC2O` (stereo not given) yielded a melting point of 122 to 124 °C.

`CCC1(SC)CCC2C3CCC4=CC(=O)C=CC4(C)C3(F)C(O)CC21C` (stereo not given) showed a melting point of 252 to 254 °C.

On to `CCCc1nc2c(N)nc3cccnc3c2n1CCCCN(OC)C(=O)NC(C)C`, for which the melting point is 161 to 162 °C.

With `Clc1ccc([C@@H]2CNc3ccccc3S2)cc1`, the melting point lay in the range of 151 to 153 °C.

Regarding `CN(C)CCc1[nH]c2ccccc2c1CSc1ccccc1`, the melting point is 97 to 99 °C.

The compound `Nc1ncnc2[nH]c(=O)sc12` yielded a melting point of more than 370 °C.

With `CNc1ccc(C(=O)NCCC(=O)O)cc1[N+](=O)[O-]`, the melting point lay in the range of 187 to 190 °C.

As for `COc1nc(Cl)cc(I)c1C=O`, the melting point was 120 to 124 °C.

On to `Cc1nc2ccc3c(c2o1)C(=CC#N)CC3`, for which the melting point was 180 to 182 °C.

As to `Cc1oc(-c2ccc(Cl)cc2)nc1COc1cccc(/C=C/C(C)n2oc(=O)[nH]c2=O)c1` (stereo not given), the melting point was in the range of 172 to 174 °C.

In the case of `O=C(c1cc(O)c(O)c([N+](=O)[O-])c1)c1ccccc1F`, the melting point was 169 to 171 °C.

Take `CC(=O)OC1=C(c2nnn(Cc3ccccc3)n2)N(C)S(=O)(=O)c2ccccc21`: the melting point came out at 173 °C.

`C=CCOC(=O)C(C#N)=C1Nc2ccccc2O1`: the melting point lay in the range of 181 to 183 °C.

In turn, `CCCNC(=O)C1Cc2c([nH]c3ccccc23)C(c2ccc3c(c2)OCO3)N1C(C)=O` (stereo not given) displayed a melting point of 163 to 165 °C.

The compound `Oc1ccc(Cl)cc1CN1COC(c2ccc(C(F)(F)F)cc2)=N1` returned a melting point of 144 to 145 °C.

On to `c1ccc(CN2CCCC(c3ncc(-c4cnc(-c5ccccc5)nc4)[nH]3)C2)cc1` (stereo not given), for which the melting point came to 179 °C.

In turn, `CN(C)c1ccc(NC(=O)N(CC2CCCCC2)C[C@H]2CC[C@H](CN(CC3CCCCC3)C(=O)Nc3ccc(N(C)C)cc3)CC2)cc1` yielded a melting point of 210 to 212 °C.

Regarding `CC(=O)OC(OC(C)=O)c1ccc2occ(C#N)c(=O)c2c1`, the melting point lay within 185 to 186 °C.

Compound `CNC(=S)NS(=O)(=O)C(F)(F)F` showed a melting point of 88 to 90 °C.

In the case of `CCOC(CNC(=S)Nc1nccs1)OCC`, the melting point lay in the range of 118 to 119 °C.

As to `O=[N+]([O-])c1cc(Cl)c(Cl)cc1-n1cccc1`, the melting point was 69.5 to 70.5 °C.

As for `CC(C)C(NS(=O)(=O)c1ccc(-c2ccc([N+](=O)[O-])cc2)cc1)C(=O)O` (stereo not given), the melting point was 165 to 167 °C.

Compound `COCC1CCCN1S(=O)(=O)c1ccc2c(c1)C1(OCCCO1)C1=NCC(C)(C)CN12` (stereo not given) displayed a melting point of 169 to 171 °C.

For `CCNc1cncc(C(=NCCO[N+](=O)[O-])NC#N)c1`, the melting point stood at 100 °C.

As to `O=C(Nc1cccc(C(=O)O)c1)OCc1ccccc1`, the melting point was in the range of 218 to 219 °C.

For `NC(=O)COc1ccc(C(=O)CN2CCN(c3ccncc3)CC2)cc1`, the melting point was 247 to 248 °C.

`Cn1cc(C2CCN(CCCCNC(=O)c3ccc(-c4ccc(C(F)(F)F)cc4)cc3)CC2)c2ccccc21`: the melting point fell in the range of 205 to 206 °C.

Compound `C=Cc1ccc2c(c1)c(=O)c(C(=O)NCc1ccc(Cl)cc1)cn2C` gave a melting point of 193 to 196 °C.

Regarding `NC(=O)c1cccc2c1CC(N(CCCc1c[nH]c3ccc(F)cc13)C1CCC1)CO2` (stereo not given), the melting point was 102 to 105 °C.

On to `CC(=O)OCCc1sc2nc(=NS(=O)(=O)c3ccc(C)cc3)sn2c1-c1ccc2c(c1)CCCC2`, for which the melting point was 126 to 127 °C.

Compound `CC(=NO)C(=O)C(C)(C)C` showed a melting point of 107 to 110 °C.

`COC(=O)CCc1cnoc1-c1ccc(Cl)c(Br)c1` came in with a melting point of 54 to 55 °C.

`Cc1cccc(C)c1C=NNC(=N)NCc1ccccc1` registered a melting point of 125 to 126 °C.

With `O=C1c2cccc(-c3ccccc3)c2C(=O)C1c1ccccc1` (stereo not given), the melting point lay in the range of 166 to 168 °C.

Regarding `CNC(=N)Nc1c(Cl)cccc1Cl`, the melting point was 140 °C.

`CN1[C@@H](c2cccc(Cl)c2)c2ccccc2S1(=O)=O` displayed a melting point of 164 °C.

For `Cc1cc(C(N)=O)nn1CCO`, the melting point fell in the range of 170 to 172 °C.

Compound `COC(=O)c1cc(Br)c2cc(Cc3ccc(F)cc3)cnc2c1O` displayed a melting point of 152 °C.

Regarding `COc1cc(Cl)c2c(=O)c(N3CCCCC3)coc2c1`, the melting point was 122 to 125 °C.

Take `CCOC(=O)c1cn(CC)c2nc(N3CCN(C=O)CC3)ncc2c1=O`: the melting point came to 195 °C.
